{
  "source": "ChEMBL document CHEMBL4364338",
  "about": "“Probing the side chain tolerance for inhibitors of the CD95/PLCγ1 interaction” (Bioorg Med Chem Lett, 2019)",
  "note": "Active and inactive are the calls of the source. No cut-off for these calls is given here.",
  "data": [
    {"species_on_record": "Homo sapiens", "assay": "Inhibition of CD95 (unknown origin)/PLCgamma-1 SH3 domain Q805A mutant (unknown origin) protein-protein interaction transfected in HEK293T cells incubated for 1 hr by renilla luciferase based protein-fragment complementation assay", "assay_type": "cell-based", "values": [
      {"compound": "C[C@@H](O)[C@H](N)C(=O)NCCN(C(=O)CCS)[C@@H](CCCNC(=N)N)C(=O)NCCN(C(=O)CCCCCN)[C@@H](Cc1c[nH]cn1)C(=O)NCCN(C(=O)CCCCNC(=N)N)[C@@H](CCCCN)C(N)=O", "inhibition": "inactive"}
    ]},
    {"system": "not listed separately", "assay": "Inhibition of CD95 (unknown origin)/PLCgamma-1 SH3 domain (unknown origin) protein-protein interaction transfected in HEK293T cells incubated for 1 hr by renilla luciferase based protein-fragment complementation assay", "assay_type": "cell-based, Homo sapiens", "units": {"IC50": "µM"}, "values": [
      {"compound": "N=C(N)NCCCCC(=O)N(CCNC(=O)[C@H](Cc1c[nH]cn1)N(CCNC(=O)[C@H](CCCNC(=N)N)N(CCN)C(=O)CCS)C(=O)CCCCCN)[C@@H](CCCCN)C(N)=O", "IC50": 75},
      {"compound": "CCC(=O)N(CCN)[C@@H](CCCNC(=N)N)C(=O)NCCN(C(=O)CCCCCN)[C@@H](Cc1c[nH]cn1)C(=O)NCCN(C(=O)CCCCNC(=N)N)[C@@H](CCCCN)C(N)=O", "IC50": 61},
      {"compound": "N=C(N)NCCC[C@@H](C(=O)NCCN(C(=O)CCCCCN)[C@@H](Cc1c[nH]cn1)C(=O)NCCN(C(=O)CCCCCC(N)=O)[C@@H](CCCCN)C(N)=O)N(CCN)C(=O)CCS", "IC50": "> 5000"},
      {"compound": "N=C(N)NCCC[C@@H](C(=O)NCCN(C(=O)CCCCCN)[C@@H](Cc1c[nH]cn1)C(=O)NCCN(C(=O)CCc1ccc(O)cc1)[C@@H](CCCCN)C(N)=O)N(CCN)C(=O)CCS", "IC50": 655},
      {"compound": "C[C@@H](O)[C@H](N)C(=O)NCCN(C(=O)CCS)[C@@H](CCCNC(=N)N)C(=O)NCCN(C(=O)CCCCCN)[C@@H](Cc1c[nH]cn1)C(=O)NCCN(C(=O)CCCCNC(=N)N)[C@@H](CCCCN)C(N)=O", "IC50": 77},
      {"compound": "N=C(N)NCCC[C@@H](C(=O)NCCN(C(=O)CCCCCN)[C@@H](Cc1c[nH]cn1)C(=O)NCCN(C(=O)CCc1c[nH]c2ccccc12)[C@@H](CCCCN)C(N)=O)N(CCN)C(=O)CCS", "IC50": 343},
      {"compound": "N=C(N)NCCCCC(=O)N(CCNC(=O)[C@H](Cc1c[nH]cn1)N(CCNC(=O)[C@H](CCCNC(=N)N)N(CCN)C(=O)CCO)C(=O)CCCCCN)[C@@H](CCCCN)C(N)=O", "IC50": 79},
      {"compound": "N=C(N)NCCC[C@@H](C(=O)NCCN(C(=O)CCCCCN)[C@@H](Cc1c[nH]cn1)C(=O)NCCN(C(=O)CCc1ccc(N)cc1)[C@@H](CCCCN)C(N)=O)N(CCN)C(=O)CCS", "IC50": 856},
      {"compound": "N=C(N)NCCCCC(=O)N(CCNC(=O)[C@H](Cc1c[nH]cn1)N(CCNC(=O)[C@H](Cc1cccnc1)N(CCN)C(=O)CCS)C(=O)CCCCCN)[C@@H](CCCCN)C(N)=O", "IC50": 907},
      {"compound": "N=C(N)NCCCCC(=O)N(CCNC(=O)[C@H](Cc1c[nH]cn1)N(CCNC(=O)[C@H](Cc1c[nH]c2ccccc12)N(CCN)C(=O)CCS)C(=O)CCCCCN)[C@@H](CCCCN)C(N)=O", "IC50": 85},
      {"compound": "H-TCRKHRK-OH", "IC50": 35}
    ]},
    {"species_on_record": "Homo sapiens", "assay": "Inhibition of CD95 (unknown origin)/PLCgamma-1 SH3 domain D808A mutant (unknown origin) protein-protein interaction transfected in HEK293T cells incubated for 1 hr by renilla luciferase based protein-fragment complementation assay", "assay_type": "cell-based", "values": [
      {"compound": "C[C@@H](O)[C@H](N)C(=O)NCCN(C(=O)CCS)[C@@H](CCCNC(=N)N)C(=O)NCCN(C(=O)CCCCCN)[C@@H](Cc1c[nH]cn1)C(=O)NCCN(C(=O)CCCCNC(=N)N)[C@@H](CCCCN)C(N)=O", "inhibition": "inactive"}
    ]},
    {"system": "not listed separately", "assay": "Inhibition of CD95 (unknown origin)/FADD (unknown origin) protein-protein interaction transfected in HEK293T cells incubated for 1 hr by renilla luciferase based protein-fragment complementation assay", "assay_type": "cell-based, Homo sapiens", "units": {"IC50": "µM"}, "values": [
      {"compound": "N=C(N)NCCCCC(=O)N(CCNC(=O)[C@H](Cc1c[nH]cn1)N(CCNC(=O)[C@H](CCCNC(=N)N)N(CCN)C(=O)CCS)C(=O)CCCCCN)[C@@H](CCCCN)C(N)=O", "IC50": 3800},
      {"compound": "CCC(=O)N(CCN)[C@@H](CCCNC(=N)N)C(=O)NCCN(C(=O)CCCCCN)[C@@H](Cc1c[nH]cn1)C(=O)NCCN(C(=O)CCCCNC(=N)N)[C@@H](CCCCN)C(N)=O", "IC50": "> 5000"},
      {"compound": "N=C(N)NCCC[C@@H](C(=O)NCCN(C(=O)CCCCCN)[C@@H](Cc1c[nH]cn1)C(=O)NCCN(C(=O)CCCCCC(N)=O)[C@@H](CCCCN)C(N)=O)N(CCN)C(=O)CCS", "IC50": "> 5000"},
      {"compound": "N=C(N)NCCC[C@@H](C(=O)NCCN(C(=O)CCCCCN)[C@@H](Cc1c[nH]cn1)C(=O)NCCN(C(=O)CCc1ccc(O)cc1)[C@@H](CCCCN)C(N)=O)N(CCN)C(=O)CCS", "IC50": "> 5000"},
      {"compound": "C[C@@H](O)[C@H](N)C(=O)NCCN(C(=O)CCS)[C@@H](CCCNC(=N)N)C(=O)NCCN(C(=O)CCCCCN)[C@@H](Cc1c[nH]cn1)C(=O)NCCN(C(=O)CCCCNC(=N)N)[C@@H](CCCCN)C(N)=O", "IC50": "> 5000"},
      {"compound": "N=C(N)NCCC[C@@H](C(=O)NCCN(C(=O)CCCCCN)[C@@H](Cc1c[nH]cn1)C(=O)NCCN(C(=O)CCc1c[nH]c2ccccc12)[C@@H](CCCCN)C(N)=O)N(CCN)C(=O)CCS", "IC50": 2650},
      {"compound": "N=C(N)NCCCCC(=O)N(CCNC(=O)[C@H](Cc1c[nH]cn1)N(CCNC(=O)[C@H](CCCNC(=N)N)N(CCN)C(=O)CCO)C(=O)CCCCCN)[C@@H](CCCCN)C(N)=O", "IC50": 3930},
      {"compound": "N=C(N)NCCC[C@@H](C(=O)NCCN(C(=O)CCCCCN)[C@@H](Cc1c[nH]cn1)C(=O)NCCN(C(=O)CCc1ccc(N)cc1)[C@@H](CCCCN)C(N)=O)N(CCN)C(=O)CCS", "IC50": "> 5000"},
      {"compound": "N=C(N)NCCCCC(=O)N(CCNC(=O)[C@H](Cc1c[nH]cn1)N(CCNC(=O)[C@H](Cc1cccnc1)N(CCN)C(=O)CCS)C(=O)CCCCCN)[C@@H](CCCCN)C(N)=O", "IC50": 4250},
      {"compound": "N=C(N)NCCCCC(=O)N(CCNC(=O)[C@H](Cc1c[nH]cn1)N(CCNC(=O)[C@H](Cc1c[nH]c2ccccc12)N(CCN)C(=O)CCS)C(=O)CCCCCN)[C@@H](CCCCN)C(N)=O", "IC50": 173},
      {"compound": "H-TCRKHRK-OH", "IC50": "> 5000"}
    ]},
    {"species_on_record": "Homo sapiens", "assay": "Selectivity index, ratio of IC50 for CD95 (unknown origin)/FADD (unknown origin) protein-protein interaction transfected in HEK293T cells to IC50 for CD95 (unknown origin)/PLCgamma-1 SH3 domain (unknown origin) protein-protein interaction transfected in HEK293T cells", "assay_type": "cell-based", "values": [
      {"compound": "N=C(N)NCCCCC(=O)N(CCNC(=O)[C@H](Cc1c[nH]cn1)N(CCNC(=O)[C@H](CCCNC(=N)N)N(CCN)C(=O)CCS)C(=O)CCCCCN)[C@@H](CCCCN)C(N)=O", "Ratio IC50": 50},
      {"compound": "CCC(=O)N(CCN)[C@@H](CCCNC(=N)N)C(=O)NCCN(C(=O)CCCCCN)[C@@H](Cc1c[nH]cn1)C(=O)NCCN(C(=O)CCCCNC(=N)N)[C@@H](CCCCN)C(N)=O", "Ratio IC50": "> 100"},
      {"compound": "N=C(N)NCCC[C@@H](C(=O)NCCN(C(=O)CCCCCN)[C@@H](Cc1c[nH]cn1)C(=O)NCCN(C(=O)CCc1ccc(O)cc1)[C@@H](CCCCN)C(N)=O)N(CCN)C(=O)CCS", "Ratio IC50": "> 10"},
      {"compound": "C[C@@H](O)[C@H](N)C(=O)NCCN(C(=O)CCS)[C@@H](CCCNC(=N)N)C(=O)NCCN(C(=O)CCCCCN)[C@@H](Cc1c[nH]cn1)C(=O)NCCN(C(=O)CCCCNC(=N)N)[C@@H](CCCCN)C(N)=O", "Ratio IC50": "> 100"},
      {"compound": "N=C(N)NCCC[C@@H](C(=O)NCCN(C(=O)CCCCCN)[C@@H](Cc1c[nH]cn1)C(=O)NCCN(C(=O)CCc1c[nH]c2ccccc12)[C@@H](CCCCN)C(N)=O)N(CCN)C(=O)CCS", "Ratio IC50": 8},
      {"compound": "N=C(N)NCCCCC(=O)N(CCNC(=O)[C@H](Cc1c[nH]cn1)N(CCNC(=O)[C@H](CCCNC(=N)N)N(CCN)C(=O)CCO)C(=O)CCCCCN)[C@@H](CCCCN)C(N)=O", "Ratio IC50": 50},
      {"compound": "N=C(N)NCCC[C@@H](C(=O)NCCN(C(=O)CCCCCN)[C@@H](Cc1c[nH]cn1)C(=O)NCCN(C(=O)CCc1ccc(N)cc1)[C@@H](CCCCN)C(N)=O)N(CCN)C(=O)CCS", "Ratio IC50": "> 10"},
      {"compound": "N=C(N)NCCCCC(=O)N(CCNC(=O)[C@H](Cc1c[nH]cn1)N(CCNC(=O)[C@H](Cc1cccnc1)N(CCN)C(=O)CCS)C(=O)CCCCCN)[C@@H](CCCCN)C(N)=O", "Ratio IC50": 4},
      {"compound": "N=C(N)NCCCCC(=O)N(CCNC(=O)[C@H](Cc1c[nH]cn1)N(CCNC(=O)[C@H](Cc1c[nH]c2ccccc12)N(CCN)C(=O)CCS)C(=O)CCCCCN)[C@@H](CCCCN)C(N)=O", "Ratio IC50": 2},
      {"compound": "H-TCRKHRK-OH", "Ratio IC50": "> 100"}
    ]}
  ]
}
